For assay [1], the target named is T1, Mtr LpqY (Mycolicibacterium thermoresistibile, UniProt G7CES0). The experiment in a line: Thermal shift assay (SYPRO Orange) of potential ligands. Format: binding, Mycobacterium thermoresistible. The settings on record: ligand 10 mM; for ΔTm: Mtr LpqY 2.6 μM, shift relative to protein alone (Tm 66.0 °C), no unit in table, °C.
Assay [2] concerns the target T1, Mtr LpqY. The experiment in a line: Microscale thermophoresis (MST), wild-type protein. The format is binding, Mycobacterium thermoresistible. Conditions: for Kd: 21 °C, wild-type Mtr LpqY 500 nM, mean ± SEM, at least three experiments. On the technique in general: Microscale thermophoresis detects binding through changes in fluorescence in a small temperature gradient.

The next assay relates to mycobacteria. On the set-up: method as in PMID 22978752. Conditions: cited from earlier work.
Assay [3] deals with T1, Mtr LpqY. The experiment in a line: Saturation transfer difference (STD) NMR. Format: binding, Mycobacterium thermoresistible. The settings on record: protein 25 μM, ligand 1 mM, PBS D2O pH 7.4, 288 K. As to the method: However, despite numerous efforts, we were unable to obtain a crystal structure of Mtr LpqY in complex with 6-azido-trehalose. Therefore, to further our understanding into the mode of ligand binding, the binding epitope of 6-azido-trehalose with Mtr LpqY was determined in solution by saturation transfer difference (STD) NMR experiments, as described in the Methods section.
All the STD NMR experiments were performed in PBS D2O buffer, pH 7.4. […] STD NMR spectra were acquired on a Bruker Avance 500.13 MHz at 288 K. The on- and off-resonance spectra were acquired using a train of 50 ms Gaussian selective saturation pulses using a variable saturation time from 0.5 s to 5 s, and a relaxation delay (D1) of 4 s. The water signal was suppressed using the watergate technique ([41]), whereas the residual protein resonances were filtered using a T1ρ-filter of 40 ms. All the spectra were acquired with a spectral width of 8 kHz and 24K data points using 512 scans. The on-resonance spectra were acquired by saturating at 0.80 (aliphatic hydrogens) or 7.20 ppm (aromatic hydrogens), as average chemical shifts predicted from shiftX2 ([42]) for the aliphatic and aromatic residues present in the binding site of Mtr LpqY, whereas the off-resonance spectra were acquired by saturating at 40 ppm. […]

“Also recorded” adds a separate entry of the source. Like-named read-outs stand apart in the source and are kept apart here.

T1 sequence (G7CES0 29-471): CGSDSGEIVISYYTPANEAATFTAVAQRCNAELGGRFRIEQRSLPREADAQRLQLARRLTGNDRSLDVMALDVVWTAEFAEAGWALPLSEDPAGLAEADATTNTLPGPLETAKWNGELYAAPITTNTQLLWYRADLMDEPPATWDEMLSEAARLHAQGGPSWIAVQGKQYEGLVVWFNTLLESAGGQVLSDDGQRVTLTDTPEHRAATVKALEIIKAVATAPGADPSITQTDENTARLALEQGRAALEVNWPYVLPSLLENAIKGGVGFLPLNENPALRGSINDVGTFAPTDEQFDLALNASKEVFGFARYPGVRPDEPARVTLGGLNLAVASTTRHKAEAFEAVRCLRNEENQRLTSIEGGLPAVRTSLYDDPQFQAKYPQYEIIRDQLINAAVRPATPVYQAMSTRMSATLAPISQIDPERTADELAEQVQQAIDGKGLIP

For `OC[C@H]1O[C@H](O[C@H]2[C@H](O)[C@@H](O)C(O)O[C@@H]2CO)[C@H](O)[C@@H](O)[C@@H]1O` (mixture of isomers) [maltose], at Mtr LpqY [1], the “Recognition in the thermal shift screen (in words)” value is reported as “reduced ΔTm shifts; also recorded: inability”. The Kd is the equilibrium constant for the complex coming apart. Turning to `[N-]=[N+]=N[C@H]1[C@@H](O[C@H]2O[C@H](CO)[C@@H](O)[C@H](O)[C@H]2O)O[C@H](CO)[C@@H](O)[C@@H]1O` [2-azido-2-deoxy-trehalose, 2-azido-2-deoxy-α,α′-trehalose], the dissociation constant (Kd) on Mtr LpqY [2] (read-out: Kd) amounted to 1916 ± 7.7 µM. Moreover, at Mtr LpqY [1], the “Recognition in the thermal shift screen (in words)” value is reported as “only a minor shift” and the ΔTm was 1.7 ± 0.1. The “Import into the cytosol of mycobacteria” value with mycobacteria was “imported and found in the cytosol”. For the compound `[N-]=[N+]=N[C@@H]1[C@@H](O)[C@@H](O[C@H]2O[C@H](CO)[C@@H](O)[C@H](O)[C@H]2O)O[C@H](CO)[C@H]1O` [3-azido-3-deoxy-trehalose], the Kd on Mtr LpqY [2] (read-out: Kd) was 475 ± 17.2 µM. Further, at Mtr LpqY [1], the ΔTm is 6.7 ± 0.2. For the same compound, the “Import into the cytosol of mycobacteria” value in the assay on mycobacteria is “is not”.

`[N-]=[N+]=N[C@H]1[C@H](O)[C@@H](O)[C@@H](O[C@H]2O[C@H](CO)[C@@H](O)[C@H](O)[C@H]2O)O[C@@H]1CO` [4-azido-4-deoxy-trehalose, 4-azido-4-deoxy-α,α′-trehalose]: at Mtr LpqY [2] (read-out: Kd), the dissociation constant (Kd) worked out at 247 ± 7.1 µM. Besides, at Mtr LpqY [1], the “Recognition in the thermal shift screen (in words)” value is reported as “comparable to trehalose” and the ΔTm is given as 10.2 ± 0.1. Moreover, the “Import into the cytosol of mycobacteria” value in the assay with mycobacteria is “imported and found in the cytosol”. Take `NC[C@H]1O[C@H](O[C@H]2O[C@H](CO)[C@@H](O)[C@H](O)[C@H]2O)[C@H](O)[C@@H](O)[C@@H]1O` [6-amino-6-deoxy-trehalose, 6-amino-6-deoxy-α,α′-trehalose]: the ΔTm at Mtr LpqY [1] was 7.0 ± 0.1. `[N-]=[N+]=NC[C@H]1O[C@H](O[C@H]2O[C@H](CO)[C@@H](O)[C@H](O)[C@H]2O)[C@H](O)[C@@H](O)[C@@H]1O` [6-azido-6-deoxy-trehalose, 6-azido-6-deoxy-α,α′-trehalose] had a Kd on Mtr LpqY [2] (Kd) of 443 ± 5.3 µM. For the same compound, on Mtr LpqY [3], the “Binding by STD NMR” value is given as “Binding was confirmed”. In addition, the “Import into the cytosol of mycobacteria” value in the assay on mycobacteria was “imported and found in the cytosol”. Regarding `OCC1O[C@H](O[C@H]2OC(CO)[C@H](O)[C@H](O)C2O)C(O)[C@@H](O)[C@H]1O` (stereo partly drawn) [Galactotrehalose, α-D-galactopyranosyl-(1→1)-α-D-glucopyranoside], the ΔTm on Mtr LpqY [1] is 6.1 ± 0.6.

Regarding `OC[C@H]1O[C@H](OC[C@H]2OC(O)[C@H](O)[C@@H](O)[C@@H]2O)[C@H](O)[C@@H](O)[C@@H]1O` (stereo partly shown) [Isomaltose], on Mtr LpqY [1], the “Recognition in the thermal shift screen (in words)” value was “reduced ΔTm shifts” and the ΔTm is on record as 4.1 ± 0.2. In the case of `OC[C@H]1O[C@H](O[C@H]2C(O)O[C@H](CO)[C@@H](O)[C@@H]2O)[C@H](O)[C@@H](O)[C@@H]1O` (stereo partly shown) [Kojibiose], the “Fold reduction in binding affinity (increase in Kd) compared with trehalose” value at Mtr LpqY [2] is about 30 fold. For the same compound, the Kd at Mtr LpqY [2] (read-out: Kd) came to 2350 ± 123 µM. Moreover, on Mtr LpqY [1], the “Recognition in the thermal shift screen (in words)” value was “reduced ΔTm shifts” and the ΔTm was 7.9 ± 0.2. Consider `OC[C@H]1O[C@H](O[C@H]2O[C@H](CO)[C@@H](O)[C@H](O)[C@H]2O)[C@@H](O)[C@@H](O)[C@@H]1O` [Mannotrehalose, α-D-mannopyranosyl-(1→1)-α-D-glucopyranoside], for which the ΔTm at Mtr LpqY [1] turned out to be 5.9 ± 0.3.

For `OC[C@H]1O[C@H](O[C@H]2[C@H](O)[C@@H](CO)OC(O)[C@@H]2O)[C@H](O)[C@@H](O)[C@@H]1O` (stereo partly shown) [Nigerose], on Mtr LpqY [1], the “Recognition in the thermal shift screen (in words)” value is recorded as “reduced ΔTm shifts” and the ΔTm was determined as 5.1 ± 0.1.

On to `OC[C@H]1O[C@H](O[C@H]2O[C@H](CO)[C@@H](O)[C@H](O)[C@H]2O)[C@H](O)[C@@H](O)[C@@H]1O` [Trehalose, α-D-glucopyranosyl-α-D-glucopyranoside], for which the “Binding by STD NMR” value on Mtr LpqY [3] is on record as “Binding was confirmed”. `O=P(O)(O)OC[C@H]1O[C@H](O[C@H]2O[C@H](CO)[C@@H](O)[C@H](O)[C@H]2O)[C@H](O)[C@@H](O)[C@@H]1O` [Trehalose-6-phosphate]: the ΔTm on Mtr LpqY [1] came out at 3.7 ± 0.2. Turning to `OC[C@H]1OC(O)[C@H](O)[C@@H](O)[C@@H]1O` (stereo partly shown) [glucose], the “Recognition in the thermal shift screen (in words)” value on Mtr LpqY [1] was “no influence on the ΔTm”. Still for that read-out and setting: for `C[N+](C)(C)CCOP(=O)([O-])OC[C@H](O)CO` [glycerophosphocholine] the value was “did not observe binding”. With `OC[C@H]1O[C@@H](O[C@H]2O[C@H](CO)[C@@H](O)[C@H](O)[C@H]2O)[C@H](O)[C@@H](O)[C@@H]1O` [α,β-trehalose], the ΔTm on Mtr LpqY [1] amounted to 3.7 ± 0.1.

The values are drawn from PMC7949145 (The Journal of Biological Chemistry, 2021).
